The target in the assay is Gamma-secretase. Nature of the assay: Inhibition of gamma secretase in human H4 cells over expressing human APP695 harboring K595N/M596L Swedish double mutant assessed as reduction in Abeta42 production level after 24 hrs by Alphalisa assay. It counts as cell-based. In general terms: Alpha assays give light when donor and acceptor beads are brought close together.
As for `Cc1cn(C23CC(Nc4nc5n(n4)CCCC[C@@H]5c4cc(F)cc(Cl)c4)(C2)C3)cn1`, the IC50 (commonly the midpoint of a concentration-inhibition curve) was 8 nM.
As for `Cc1cn(C23CC(Nc4nc5n(n4)CCCC[C@@H]5c4ccc(Cl)cc4)(C2)C3)cn1`, the figure is 26 nM; as for `Cc1cn(C23CC(Nc4nc5n(n4)CCCC[C@@H]5c4ccc(F)c(F)c4)(C2)C3)cn1`, 44 nM.
On to `Cc1cn(C23CCC(Nc4nc5n(n4)CCCC[C@H]5c4ccc(F)c(F)c4)(CC2)CC3)cn1`, for which the IC50 turned out to be 49 nM.
`Cc1cn(C23CC(Nc4nc5n(n4)CCCC[C@H]5c4ccc(Cl)cc4)(C2)C3)cn1`: the IC50 came out at 23 nM.
Turning to `Cc1cn(C23CCC(Nc4nc5n(n4)CCCC[C@@H]5c4cc(F)cc(Cl)c4)(CC2)CC3)cn1`, the IC50 worked out at 15 nM.
Take `Cc1cn(C23CC(Nc4nc5n(n4)CCCC[C@H]5c4ccc(F)cc4)(C2)C3)cn1`: the IC50 was 31 nM.
Turning to `Cc1cn(C23CC(Nc4nc5n(n4)CCCC[C@H]5c4cccc(Cl)c4)(C2)C3)cn1`, the IC50 worked out at 16 nM.
As for `Cc1cn(C23CC(Nc4nc5n(n4)CCCC[C@@H]5c4ccc(F)cc4)(C2)C3)cn1`, the IC50 was 25 nM.
As for `Cc1cn(C23CC(Nc4nc5n(n4)CCCC[C@@H]5c4cccc(Cl)c4)(C2)C3)cn1`, the figure is 15 nM; as for `Cc1cn(C23CC(Nc4nc5n(n4)CCCC[C@H]5c4ccc(F)c(F)c4)(C2)C3)cn1`, 27 nM; as for `Cc1cn(C23CCC(Nc4nc5n(n4)CCCC[C@H]5c4cc(F)cc(Cl)c4)(CC2)CC3)cn1`, 14 nM.
For the compound `Cc1cn(C23CC(Nc4nc5n(n4)CCCC[C@H]5c4cc(F)cc(Cl)c4)(C2)C3)cn1`, the IC50 came out at 14 nM.
For `Cc1cn(C23CCC(Nc4nc5n(n4)CCCC[C@@H]5c4ccc(F)c(F)c4)(CC2)CC3)cn1` the value was 39 nM.

Source of the values: ChEMBL document CHEMBL4304806, “Triazolo-azepine Inhibitors of γ-Secretase and Their Methods of Use” (ACS Med Chem Lett, 2019).
